Data taken from patent US20260042764A1, “COMPOSITIONS AND METHODS FOR INHIBITION OF KRAS” (TheRas, Inc., priority 2022, published 2026).

What was measured:
[1] = biological target: T1, Avi-KRAS G12D (2-169) GTP/RAF1 RBD-3xFLAG (51-131) (Homo sapiens, UniProt P01116, G12D); assay: Raf1-KRAS G12D-GTP disruption HTRF assay (Biological Example 3); format: binding
T1 construct: Avi-KRAS G12D (2-169)
Method in brief: (§1)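 50 nM Avi-KRAS (2-169) GTP/RAF1 RBD complex; 75 nM RBD-Avi; pH 7.5 Tris buffer, 10% DMSO; cpd 30 μM top, 3x, 10 pts; 1 h RT, 700 rpm; HTRF, % of DMSO.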

[2] = test system: GP2d cells (KRAS G12D); assay: Cell-based pERK HTRF assay in GP2d cell (Biological Example 2); conditions: GP2d
Method in brief: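 Treatment with test compounds lasted one hour in DMEM containing 10% FBS, with DMSO held at 0.25%. Dilution series: 9 points, half-log spacing, highest 1 μM or 100 nM. Lysates were incubated 4–24 h at room temperature with antibody mix, then HTRF was read at 320 nm excitation.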

[3] = biological target: T2, Avi-KRAS G12C (2-169) GTP/RAF1 RBD-3xFLAG (51-131) (Homo sapiens, UniProt P01116, G12C); assay: Raf1-KRAS G12C-GTP disruption HTRF assay (Biological Example 3); format: binding
T2 construct: Avi-KRAS G12C (2-169)
Method in brief: as §1

[4] = biological target: T3, Avi-KRAS WT (2-169) GTP/RAF1 RBD-3xFLAG (51-131) (Homo sapiens, UniProt P01116); assay: Raf1-KRAS WT-GTP disruption HTRF assay (Biological Example 3); format: binding
T3 construct: Avi-KRAS WT (2-169)
Method in brief: as §1

[5] = biological target: T4, Avi-KRAS G12V (2-169) GTP/RAF1 RBD-3xFLAG (51-131) (Homo sapiens, UniProt P01116, G12V); assay: Raf1-KRAS G12V-GTP disruption HTRF assay (Biological Example 3); format: binding
T4 construct: Avi-KRAS G12V (2-169)
Method in brief: as §1

[6] = test system: SW620 cells (KRAS G12V); assay: Cell-based pERK HTRF assay in SW620 cell (Biological Example 4); conditions: Homo sapiens
Method in brief: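 This assay measures inhibition of ERK phosphorylation downstream of KRAS G12V in intact SW620 cells. Compounds are applied for 4 h over nine half-log concentrations starting at 1 μM, and pERK is quantified by HTRF.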

[7] = SW-620, SW620 (KRAS G12V) cells

T2 sequence (P01116 2-169 isoform P01116-2 G12C): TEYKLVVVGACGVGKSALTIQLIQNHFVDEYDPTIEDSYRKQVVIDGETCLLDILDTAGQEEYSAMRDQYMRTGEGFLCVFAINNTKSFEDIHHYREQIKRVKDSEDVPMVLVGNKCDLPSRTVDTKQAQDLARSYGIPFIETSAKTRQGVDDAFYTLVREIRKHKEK
T4 sequence (P01116 2-169 isoform P01116-2 G12V): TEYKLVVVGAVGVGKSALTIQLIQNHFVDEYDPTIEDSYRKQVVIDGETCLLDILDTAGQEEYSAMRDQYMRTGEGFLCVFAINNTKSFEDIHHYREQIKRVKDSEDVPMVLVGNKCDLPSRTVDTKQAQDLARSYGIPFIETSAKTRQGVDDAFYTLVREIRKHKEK
T3 sequence (P01116 2-169 isoform P01116-2): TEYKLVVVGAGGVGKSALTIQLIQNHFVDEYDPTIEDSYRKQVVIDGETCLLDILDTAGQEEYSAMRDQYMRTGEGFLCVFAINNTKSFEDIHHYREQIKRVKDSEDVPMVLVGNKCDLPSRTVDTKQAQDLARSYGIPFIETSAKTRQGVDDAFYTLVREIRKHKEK
T1 sequence (P01116 2-169 isoform P01116-2 G12D): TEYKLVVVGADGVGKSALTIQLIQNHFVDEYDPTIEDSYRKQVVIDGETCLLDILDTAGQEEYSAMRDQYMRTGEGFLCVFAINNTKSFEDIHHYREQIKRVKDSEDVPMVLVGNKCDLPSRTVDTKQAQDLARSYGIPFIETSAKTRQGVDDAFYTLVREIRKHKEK

CCN(c1nc(OC[C@@]23CCCN2C[C@H](F)C3)nc2c(F)c(-c3ccc(F)c4sc(N)c(C#N)c34)c(C(F)(F)F)cc12)[C@H]1C[C@H]2CN(C3COC3)C(=O)N2C1 (atropisomer, axis not shown) [Compound 958] gave an IC50 ([1]; KRAS G12D, GTP-loaded) of 0.1 to 1 µM, an IC50 ([2]; GP2d (KRAS G12D) cells) of less than 0.1 µM and an IC50 ([3]; KRAS G12C, GTP-loaded) of 0.1 to 1 µM. The IC50 ([4]; KRAS WT, GTP-loaded) was 0.1 to 1 µM, the IC50 ([5]; KRAS G12V, GTP-loaded) was 0.1 to 1 µM and the IC50 [6, 7] was less than 0.1 µM.

CN(CC1COC1)c1nc(OC[C@@]23CCCN2C[C@H](F)C3)nc2c(F)c(-c3ccc(F)c4sc(N)c(C#N)c34)c(C(F)(F)F)cc12 (atropisomer, axis not shown) [Compound 963] was tested, and the IC50 ([1]; KRAS G12D, GTP-loaded) was 1 to 10 µM, the IC50 ([2]; GP2d (KRAS G12D) cells) was greater than 1 µM and the IC50 ([3]; KRAS G12C, GTP-loaded) was greater than 10 µM. For the same compound, the IC50 ([4]; KRAS WT, GTP-loaded) was 1 to 10 µM, the IC50 ([5]; KRAS G12V, GTP-loaded) was greater than 10 µM and the IC50 [6, 7] was greater than 1 µM.

In the case of CCN(c1nc(OC[C@@]23CCCN2C[C@H](F)C3)nc2c(F)c(-c3ccc(F)c4sc(N)c(C#N)c34)c(C(F)(F)F)cc12)[C@H]1CCCOC1 (atropisomer, axis not shown) [Compound 965], the IC50 ([1]; KRAS G12D, GTP-loaded) is reported as 0.1 to 1 µM, the IC50 ([2]; GP2d (KRAS G12D) cells) is reported as less than 0.1 µM and the IC50 ([3]; KRAS G12C, GTP-loaded) is reported as 0.1 to 1 µM. It also gave an IC50 ([4]; KRAS WT, GTP-loaded) of 0.1 to 1 µM, an IC50 ([5]; KRAS G12V, GTP-loaded) of 0.1 to 1 µM and an IC50 [6, 7] of less than 0.1 µM.

CCN(c1nc(OC[C@@]23CCCN2C[C@H](F)C3)nc2c(F)c(-c3ccc(F)c4sc(N)c(C#N)c34)c(C(F)(F)F)cc12)[C@@H]1CO[C@H]2OCC[C@H]21 (atropisomer, axis not shown) [Compound 966] showed an IC50 ([1]; KRAS G12D, GTP-loaded) of 0.1 to 1 µM, an IC50 ([2]; GP2d (KRAS G12D) cells) of less than 0.1 µM and an IC50 ([3]; KRAS G12C, GTP-loaded) of 0.1 to 1 µM. It also gave an IC50 ([4]; KRAS WT, GTP-loaded) of 0.1 to 1 µM, an IC50 ([5]; KRAS G12V, GTP-loaded) of 0.1 to 1 µM and an IC50 [6, 7] of less than 0.1 µM.

CCN(c1nc(OC[C@@]23CCCN2C[C@H](F)C3)nc2c(F)c(-c3ccc(F)c4sc(N)c(C#N)c34)c(C(F)(F)F)cc12)[C@H]1CCCN(C)C1=O (atropisomer, axis not shown) [Compound 967] was tested, and the IC50 ([1]; KRAS G12D, GTP-loaded) was 0.1 to 1 µM, the IC50 ([2]; GP2d (KRAS G12D) cells) was less than 0.1 µM and the IC50 ([3]; KRAS G12C, GTP-loaded) was 1 to 10 µM. For the same compound, the IC50 ([4]; KRAS WT, GTP-loaded) was 1 to 10 µM, the IC50 ([5]; KRAS G12V, GTP-loaded) was 1 to 10 µM and the IC50 [6, 7] was less than 0.1 µM.

With CCN(c1nc(OC[C@@]23CCCN2C[C@H](F)C3)nc2c(F)c(-c3ccc(F)c4sc(N)c(C#N)c34)c(C(F)(F)F)cc12)[C@@H]1CCCN(C)C1=O (atropisomer, axis not shown) [Compound 968] the IC50 ([1]; KRAS G12D, GTP-loaded) was 0.1 to 1 µM, the IC50 ([2]; GP2d (KRAS G12D) cells) was less than 0.1 µM and the IC50 ([3]; KRAS G12C, GTP-loaded) was 1 to 10 µM. For the same compound, the IC50 ([4]; KRAS WT, GTP-loaded) was 0.1 to 1 µM, the IC50 ([5]; KRAS G12V, GTP-loaded) was 1 to 10 µM and the IC50 [6, 7] was less than 0.1 µM.

Work on CCN(c1nc(OC[C@@]23CCCN2C[C@H](F)C3)nc2c(F)c(-c3ccc(F)c4sc(N)c(C#N)c34)c(C(F)(F)F)cc12)[C@H]1C[C@H]2CN(C3CCC3)C(=O)N2[C@@H]1C (atropisomer, axis not shown) [Compound 970] yielded an IC50 ([1]; KRAS G12D, GTP-loaded) of 0.1 to 1 µM, an IC50 ([2]; GP2d (KRAS G12D) cells) of less than 0.1 µM and an IC50 ([3]; KRAS G12C, GTP-loaded) of 0.1 to 1 µM. For the same compound, the IC50 ([4]; KRAS WT, GTP-loaded) was 0.1 to 1 µM, the IC50 ([5]; KRAS G12V, GTP-loaded) was 0.1 to 1 µM and the IC50 [6, 7] was less than 0.1 µM.

CN(c1nc(OC[C@@]23CCCN2C[C@H](F)C3)nc2c(F)c(-c3ccc(F)c4sc(N)c(C#N)c34)c(C(F)(F)F)cc12)[C@H]1CCCc2ccncc21 (atropisomer, axis not shown) [Compound 971] gave an IC50 ([1]; KRAS G12D, GTP-loaded) greater than 10 µM, an IC50 ([2]; GP2d (KRAS G12D) cells) of less than 0.1 µM and an IC50 ([3]; KRAS G12C, GTP-loaded) greater than 10 µM. The IC50 ([4]; KRAS WT, GTP-loaded) was greater than 10 µM, the IC50 ([5]; KRAS G12V, GTP-loaded) was greater than 10 µM and the IC50 [6, 7] was less than 0.1 µM.

CN(c1nc(OC[C@@]23CCCN2C[C@H](F)C3)nc2c(F)c(-c3ccc(F)c4sc(N)c(C#N)c34)c(C(F)(F)F)cc12)[C@@H]1CCCc2ccncc21 (atropisomer, axis not shown) [Compound 972] gave an IC50 ([1]; KRAS G12D-GTP / RAF1 RBD HTRF) of 0.1 to 1 µM, an IC50 ([2]; GP2d cells (KRAS G12D)) of less than 0.1 µM and an IC50 ([3]; KRAS G12C-GTP / RAF1 RBD HTRF) of 0.1 to 1 µM. The IC50 ([4]; KRAS WT-GTP / RAF1 RBD HTRF) was 0.1 to 1 µM, the IC50 ([5]; KRAS G12V-GTP / RAF1 RBD HTRF) was 0.1 to 1 µM and the IC50 ([6]; SW-620, SW620 cells (KRAS G12V)) was less than 0.1 µM.
